{"source": "paper PMC9487543", "about": "(Antimicrobial Agents and Chemotherapy, 2022)", "key": {"[1]": {"assay": "Safety and tolerability in subjects with various degrees of renal impairment", "details": "human, in vivo", "protocol": "Safety was assessed based on the occurrence of adverse events and on the evaluation of laboratory tests (chemistry, hematology, urinalysis, and coagulation), physical examinations, vital signs, and 12-lead ECGs. Safety was followed through 7 days post-dose."}, "[2]": {"details": "human, in vivo", "text": "Subjects aged 18 to 80 years were enrolled into 1 of 4 groups based on the level of renal function (renal groups). […] Subjects in the Normal group were matched to subjects with renal impairment with regard to gender, age (±10 years), and weight (±10 kg). A single healthy subject may have been the match for more than one subject with renal impairment.\nHuman dipotassium ethylenediaminetetraacetic acid plasma samples were processed using protein precipitation prior to assay. Urine samples collected for pharmacokinetic analysis in the study were processed and assayed for only taniborbactam using a validated bioanalytical method. […]\n(§1) Validated LC-MS/MS methods (LLOQ = 5.00 ng/mL) were used to quantitate the concentrations of taniborbactam in urine.\nEstimated plasma pharmacokinetic parameters included the Cmax, time to Cmax (Tmax), AUC through the last measurable observed concentration (AUCt), AUCinf, t1/2, CL, and VZ. For taniborbactam, using the urine observations, the amount excreted unchanged in urine (Ae), fraction excreted unchanged in urine as the percentage of administered dose (Fe), renal clearance (CLR), and nonrenal clearance (CLNR) were calculated. […] If a good estimate of λZ could not be determined for a concentration-time profile, then none of the pharmacokinetic parameters dependent on λZ were calculated. […]"}, "[3]": {"assay": "Plasma pharmacokinetics in hemodialysis-dependent subjects, On-dialysis vs Off-dialysis periods", "assay_type": "in vivo, human", "details": "for AUCinf / CL / Cmax / VZ / t1/2 / AUC(0-inf): single 2 h IV infusion 2 g cefepime + 0.5 g taniborbactam; for AUCinf / CL / Cmax / VZ / AUC(0-inf): geometric mean (geometric CV %); for t1/2: mean (SD)", "protocol": "(§2) In addition to the groups enrolled by renal function to study the effect of renal impairment, a group of subjects with ESRD undergoing chronic intermittent hemodialysis were enrolled into a separate group (Group 5; “Dialysis”) to determine the amounts of drug removed by filtration. Hemodialysis used standard commercial dialyzers and membranes. […] A fixed sequence of dialysis timing with respect to dose was used, where the dose was administered prior to dialysis in the first treatment period (“On-dialysis”; Period 1) and administered following dialysis in the second treatment period (“Off-dialysis”; Period 2). […] For the Off-dialysis period, subjects had the SOI begin approximately 6 h after the start of dialysis, which was after the dialysis had been completed.\nAdditional blood samples, if not already collected by a defined time point, were collected at 1 h after the start of dialysis and again at the end of dialysis.\nHuman dipotassium ethylenediaminetetraacetic acid plasma samples were processed using protein precipitation prior to assay. Urine samples collected for pharmacokinetic analysis in the study were processed and assayed for only taniborbactam using a validated bioanalytical method. […] Acidified urine and dialysate samples were processed using solid-phase extraction prior to assay. […]\nEstimated plasma pharmacokinetic parameters included the Cmax, time to Cmax (Tmax), AUC through the last measurable observed concentration (AUCt), AUCinf, t1/2, CL, and VZ. For taniborbactam, using the urine observations, the amount excreted unchanged in urine (Ae), fraction excreted unchanged in urine as the percentage of administered dose (Fe), renal clearance (CLR), and nonrenal clearance (CLNR) were calculated. The actual sample times were used to calculate the pharmacokinetic parameters. […] If a good estimate of λZ could not be determined for a concentration-time profile, then none of the pharmacokinetic parameters dependent on λZ were calculated.\n(§3) For Dialysis subjects (Group 5), the effect of hemodialysis was examined by comparing differences within each subject (On-Dialysis versus Off-Dialysis). The CLd was calculated by taking the individual averaged arterial to venous concentration extraction ratio (CER), multiplying by the reported Qb, and correcting for hematocrit (hct). The hct was estimated as 0.47, an assumption based on the fact that all subjects in the group were male. The amounts of drug removed by hemodialysis (Adial) were calculated using the area under the excretion rate curves, where the rates were determined using the spot dialysis concentrations and estimated dialysate volumes over a 1 min period using the Qd. The fraction of drug removed during hemodialysis, or HER, was then determined by dividing Adial by dose and was expressed as a percentage."}, "[4]": {"assay": "Urine pharmacokinetics (renal clearance) of taniborbactam by renal group", "assay_type": "in vivo, human", "details": "single 2 h IV infusion 2 g cefepime + 0.5 g taniborbactam, geometric mean (geometric CV %)", "protocol": "Urine was collected to further assess taniborbactam pharmacokinetics. Subjects were instructed to empty their bladders completely before study drug administration and just before the end of each collection interval. Urine from each timed interval was collected in a separate container. The exact start dates, stop dates, times of urine collection, and the weight and volume of each collection were recorded. Urine samples were collected within intervals of 0 to 6 h, 6 to 12 h, 12 to 24 h, 24 to 48 h, 48 to 72 h, and 72 to 96 h following the SOI. […] Urine samples were not collected from anuric subjects.\n[…]. […] […]."}, "[5]": {"assay": "Dialysis parameters (dialysis clearance, hemodialysis extraction ratio)", "assay_type": "in vivo, human", "protocol": "as §2\nHuman dipotassium ethylenediaminetetraacetic acid plasma samples were processed using protein precipitation prior to assay. Urine samples collected for pharmacokinetic analysis in the study were processed and assayed for only taniborbactam using a validated bioanalytical method. […] Acidified urine and dialysate samples were processed using solid-phase extraction prior to assay.\nas §1, §3"}, "[6]": {"details": "cited from earlier work"}, "[7]": {"tested_on": "Ambler Class A, C, and D serine-β-lactamases, and the Ambler class B metallo-β-lactamases", "details": "including VIM and NDM; cited from earlier work"}, "[8]": {"details": "Dialysis group, Off-dialysis (n = 7)"}, "[9]": {"details": "Dialysis group, On-dialysis (n = 6)"}}, "note": "Where two headings read alike, the source gives them in different places. Marks after values point to notes of the source that are not given here.", "data": [{"compound": "cefepime-taniborbactam", "values": [{"measurement": "adverse events considered related to treatment", "setting": "[1]", "value": "7 of 8"}, {"measurement": "adverse events mild in severity", "setting": "[1]", "value": "7 of 8"}, {"measurement": "deaths", "setting": "[1]", "value": "no deaths"}, {"measurement": "number of treatment emergent adverse events", "setting": "[1]", "value": 8}, {"measurement": "serious adverse events", "setting": "[1]", "value": "No subjects experienced serious adverse events"}, {"measurement": "subjects who experienced treatment emergent adverse events", "setting": "[1]", "value": 7, "unit": "subjects"}]}, {"compound": "NCCN[C@H]1CC[C@H](CC(=O)N[C@H]2Cc3cccc(C(=O)O)c3OB2O)CC1", "note": "[taniborbactam, Taniborbactam]", "values": [{"measurement": "VZ least-square geometric mean ratio (90% CI)", "setting": "[2]", "value": 149.94, "unit": "%"}, {"measurement": "AUCinf", "setting": "[3]; [8]", "value": "2003 (32.1) h·μg/mL"}, {"measurement": "CL", "setting": "[3]; [8]", "value": "0.245 (29.8) L/h"}, {"measurement": "Cmax", "setting": "[3]; [8]", "value": "37.7 (73.7) μg/mL"}, {"measurement": "VZ", "setting": "[3]; [8]", "value": "23.7 (13.4) L"}, {"measurement": "t1/2", "setting": "[3]; [8]", "value": "70.8 (22.3) h"}, {"measurement": "AUCinf", "setting": "[3]; [9]", "value": "851 (23.0) h·μg/mL"}, {"measurement": "CL", "setting": "[3]; [9]", "value": "0.579 (23.0) L/h"}, {"measurement": "Cmax", "setting": "[3]; [9]", "value": "23.4 (9.5) μg/mL"}, {"measurement": "VZ", "setting": "[3]; [9]", "value": "68.1 (15.1) L"}, {"measurement": "t1/2", "setting": "[3]; [9]", "value": "83.7 (21.5) h"}, {"measurement": "decrease in geometric mean AUC following hemodialysis", "setting": "[3]; Dialysis group, On-dialysis vs Off-dialysis", "value": 58, "unit": "%"}, {"measurement": "AUCinf least-squares GMR (90% CI)", "setting": "[3]; On-dialysis/Off-dialysis", "value": 39.29, "unit": "%"}, {"measurement": "CLR", "setting": "[4]; Mild renal impairment (n = 6)", "value": "4.23 (22.7) L/h"}, {"measurement": "CLR", "setting": "[4]; Moderate renal impairment (n = 6)", "value": "1.59 (21.0) L/h"}, {"measurement": "CLR", "setting": "[4]; Normal renal function (n = 7)", "value": "4.37 (17.8)^d L/h"}, {"measurement": "CLR", "setting": "[4]; Severe renal impairment (n = 6)", "value": "0.76 (120.3) L/h"}, {"measurement": "hemodialysis extraction ratio (HER), fraction of dose removed during hemodialysis, mean (SD)", "setting": "[5]; On-dialysis period, 4 h hemodialysis session", "value": 49.7, "unit": "%"}, {"measurement": "dialysis clearance (CLd), mean (SD)", "setting": "[5]; On-dialysis period, 4 h hemodialysis, Qb 350 to 450 mL/min", "value": "102 (5.3) mL/min"}, {"measurement": "dialyzability", "setting": "[5]; hemodialysis", "value": "dialyzable"}, {"measurement": "dose recovered in urine as unchanged parent compound", "setting": "[6]; at steady-state", "value": "approximately 89%"}, {"measurement": "β-lactamase inhibition", "setting": "[7]", "value": "potent competitive inhibition"}]}, {"compound": "CO/N=C(\\C(=O)N[C@@H]1C(=O)N2C(C(=O)[O-])=C(C[N+]3(C)CCCC3)CS[C@H]12)c1csc(N)n1", "note": "[cefepime, Cefepime, reference compound]", "values": [{"measurement": "AUC(0-inf)", "setting": "[3]; male, human, plasma, iv, Dialysis group, Off-dialysis (n = 7)", "value": 4550, "unit": "µg·h/mL"}, {"measurement": "Cmax", "setting": "[3]; male, human, plasma, iv, Dialysis group, Off-dialysis (n = 7), read-out: Cmax", "value": 165, "unit": "µg/mL"}, {"measurement": "AUC(0-inf)", "setting": "[3]; male, human, plasma, iv, Dialysis group, On-dialysis (n = 6)", "value": 1600, "unit": "µg·h/mL"}, {"measurement": "Cmax", "setting": "[3]; male, human, plasma, iv, Dialysis group, On-dialysis (n = 6), read-out: Cmax", "value": 105, "unit": "µg/mL"}, {"measurement": "amount removed during a hemodialysis session", "setting": "[6]; 3 h hemodialysis session", "value": "approximately 68%"}, {"measurement": "dose excreted unchanged in urine", "setting": "[6]; following administration of 0.25 to 2 g cefepime", "value": "at least 80%"}]}]}
